According to patent publication US9409892B2, “4-hydroxy-isoquinoline compounds as HIF hydroxylase inhibitors” (FIBROGEN, INC., priority 2012, dated 2016):
One block for each molecule: values may come before it.

How the values were obtained:
PHD1 (EGLN2) = PHD1 (EGLN2) (Homo sapiens (Human), UniProt Q96KS0); test: HIF-PH assay (14CO2 capture), PHD1 enzyme inhibition; format: biochemical; conditions: Table 1; for IC50: individual measurement, read-out: IC50 (μM) PHD1; for PHD2/PHD1: ratio of the IC50 of the compound for each enzyme
Source text: (§1) Ketoglutaric acid α-[1-^14C]-sodium salt, alpha-ketoglutaric acid sodium salt, and HPLC purified peptide may be obtained from commercial sources, e.g., Perkin-Elmer (Wellesley Mass.), Sigma-Aldrich, and SynPep Corp. (Dublin Calif.), respectively. Peptides for use in the assay may be fragments of HIFα as described above or as disclosed in International Publication WO 2005/118836, incorporated by reference herein. HIF-pH, e.g., PHD1 (EGLN2) or PHD2 (EGLN1), can be expressed in, e.g., insect Hi5 cells, and partially purified, e.g., through a SP ion exchange chromatography column. Enzyme activity is determined by capturing ^14CO2 using an assay described by Kivirikko and Myllyla (1982, Methods Enzymol. 82:245-304). Assay reactions contain 50 mM HEPES (pH 7.4), 100 μM α-ketoglutaric acid sodium salt, 0.30 mCi/mL ketoglutaric acid α-[1-^14C]-sodium salt, 40 μM FeSO4, 1 mM ascorbate, 1541.8 units/mL Catalase, with or without 50 μM peptide substrate and various concentrations of compound of the invention. Reactions are initiated by addition of HIF-PH enzyme.
(§2) The peptide-dependent percent turnover is calculated by subtracting percent turnover in the absence of peptide from percent turnover in the presence of substrate peptide. Percent inhibition and IC50 are calculated using peptide-dependent percent turnover at given inhibitor concentrations. Calculation of IC50 values for each inhibitor is conducted using GraFit software (Erithacus Software Ltd., Surrey UK).
(§3) The PHD2/PHD1 is the ratio of the IC50 of the compound for each enzyme.

PHD2 (EGLN1) = PHD2 (EGLN1) (Homo sapiens (Human), UniProt Q9GZT9); test: HIF-PH assay (14CO2 capture), PHD2 enzyme inhibition; format: biochemical; conditions: Table 1; individual measurement; read-out: IC50 (μM) PHD2
Source text: as §1, §2, §3

Chain of PHD1 (EGLN2) (Q96KS0 whole entry, the tested form may be a part): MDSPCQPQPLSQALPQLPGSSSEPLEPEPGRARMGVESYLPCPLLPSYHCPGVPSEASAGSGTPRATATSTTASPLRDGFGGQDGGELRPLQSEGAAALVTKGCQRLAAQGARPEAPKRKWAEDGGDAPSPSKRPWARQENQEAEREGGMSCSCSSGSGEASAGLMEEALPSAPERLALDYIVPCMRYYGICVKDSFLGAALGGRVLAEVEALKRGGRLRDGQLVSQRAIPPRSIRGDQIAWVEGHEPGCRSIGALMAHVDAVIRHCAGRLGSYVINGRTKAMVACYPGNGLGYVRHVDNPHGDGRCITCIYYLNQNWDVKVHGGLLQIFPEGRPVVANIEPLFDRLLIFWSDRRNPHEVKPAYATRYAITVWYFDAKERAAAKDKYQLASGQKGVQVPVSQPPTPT
Chain of PHD2 (EGLN1) (Q9GZT9 whole entry): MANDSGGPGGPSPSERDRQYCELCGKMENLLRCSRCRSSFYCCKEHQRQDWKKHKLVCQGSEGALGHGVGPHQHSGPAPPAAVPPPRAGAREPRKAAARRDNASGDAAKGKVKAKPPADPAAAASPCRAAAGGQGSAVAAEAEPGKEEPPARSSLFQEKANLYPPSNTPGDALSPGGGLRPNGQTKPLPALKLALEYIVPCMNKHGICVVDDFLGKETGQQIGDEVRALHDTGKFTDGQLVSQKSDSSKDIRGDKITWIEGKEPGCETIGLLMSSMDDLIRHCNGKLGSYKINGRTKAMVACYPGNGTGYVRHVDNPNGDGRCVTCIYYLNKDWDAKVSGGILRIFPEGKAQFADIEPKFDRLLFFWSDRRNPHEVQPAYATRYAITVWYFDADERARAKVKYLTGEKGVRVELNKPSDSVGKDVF

SMILES: N#Cc1nc(C(=O)NCC2(C(=O)O)CCS(=O)(=O)CC2)c(O)c2ccc(Oc3ccccc3)cc12 [Compound 29, 4-{[(1-Cyano-4-hydroxy-7-phenoxy-isoquinoline-3-carbonyl)-amino]-methyl}-1,1-dioxo-hexahydro-1λ^6-thiopyran-4-carboxylic acid]
IC50 (PHD1 (EGLN2)): 3.76 µM
PHD2/PHD1 (PHD1 (EGLN2)): 9.9
IC50 (PHD2 (EGLN1)): 37.3 µM

SMILES: N#Cc1nc(C(=O)NCC2(C(=O)O)CC[S+]([O-])CC2)c(O)c2ccc(Oc3ccccc3)cc12 (stereo not drawn) [Compound 30, 4-{[(1-Cyano-4-hydroxy-7-phenoxy-isoquinoline-3-carbonyl)-amino]-methyl}-1-oxo-hexahydro-1λ^4-thiopyran-4-carboxylic acid]
IC50 (PHD1 (EGLN2)): 25.1 µM
PHD2/PHD1 (PHD1 (EGLN2)): 8
IC50 (PHD2 (EGLN1)): 200 µM

SMILES: N#Cc1nc(C(=O)NCC(CC(=O)O)c2ccc(Cl)cc2)c(O)c2ccc(Oc3ccccc3)cc12 (stereo not drawn) [Compound 34, 3-(4-Chloro-phenyl)-4-[(1-cyano-4-hydroxy-7-phenoxy-isoquinoline-3-carbonyl)-amino]-butyric acid]
IC50 (PHD1 (EGLN2)): 2.55 µM
PHD2/PHD1 (PHD1 (EGLN2)): 12
IC50 (PHD2 (EGLN1)): 30.9 µM

SMILES: N#Cc1nc(C(=O)NCC2(CC(=O)O)CCCCC2)c(O)c2ccc(Oc3ccccc3)cc12 [Compound 36, (1-{[(1-Cyano-4-hydroxy-7-phenoxy-isoquinoline-3-carbonyl)-amino]-methyl}-cyclohexyl)-acetic acid]
IC50 (PHD1 (EGLN2)): 5.93 µM
PHD2/PHD1 (PHD1 (EGLN2)): 10
IC50 (PHD2 (EGLN1)): 56.6 µM

SMILES: N#Cc1nc(C(=O)N[C@@H](CO)CC(=O)O)c(O)c2ccc(Oc3ccccc3)cc12 [Compound 37, (R)-3-(1-Cyano-4-hydroxy-7-phenoxyisoquinoline-3-carboxamido)-4-hydroxybutanoic acid]
IC50 (PHD1 (EGLN2)): 6.67 µM
PHD2/PHD1 (PHD1 (EGLN2)): 24
IC50 (PHD2 (EGLN1)): 159 µM

SMILES: N#Cc1nc(C(=O)NCC[C@H](N)C(=O)O)c(O)c2ccc(Oc3ccccc3)cc12 [Compound 45, (S)-2-Amino-4-(1-cyano-4-hydroxy-7-phenoxyisoquinoline-3-carboxamido)butanoic acid]
IC50 (PHD1 (EGLN2)): 1.41 µM
PHD2/PHD1 (PHD1 (EGLN2)): 26
IC50 (PHD2 (EGLN1)): 36.7 µM

SMILES: N#Cc1nc(C(=O)N[C@@H](CC(=O)O)c2ccccc2)c(O)c2ccc(Oc3ccccc3)cc12 [Compound 47, (S)-3-[(1-Cyano-4-hydroxy-7-phenoxy-isoquinoline-3-carbonyl)-amino]-3-phenyl-propionic acid]
IC50 (PHD1 (EGLN2)): 1.28 µM
PHD2/PHD1 (PHD1 (EGLN2)): 24
IC50 (PHD2 (EGLN1)): 30.2 µM

SMILES: N#Cc1nc(C(=O)N[C@H](CC(=O)O)c2ccccc2)c(O)c2ccc(Oc3ccccc3)cc12 [Compound 48, (R)-3-[(1-Cyano-4-hydroxy-7-phenoxy-isoquinoline-3-carbonyl)-amino]-3-phenyl-propionic acid]
IC50 (PHD1 (EGLN2)): 5.42 µM
PHD2/PHD1 (PHD1 (EGLN2)): 9
IC50 (PHD2 (EGLN1)): 50.1 µM

SMILES: N#Cc1nc(C(=O)NC[C@H](Cc2ccccc2)C(=O)O)c(O)c2ccc(Oc3ccccc3)cc12 [Compound 49, (S)-2-Benzyl-3-[(1-cyano-4-hydroxy-7-phenoxy-isoquinoline-3-carbonyl)-amino]-propionic acid]
IC50 (PHD1 (EGLN2)): 1.66 µM
PHD2/PHD1 (PHD1 (EGLN2)): 14
IC50 (PHD2 (EGLN1)): 23.9 µM

SMILES: N#Cc1nc(C(=O)NCC[C@@H](N)C(=O)O)c(O)c2ccc(Oc3ccccc3)cc12 [Compound 50, (R)-2-Amino-4-(1-cyano-4-hydroxy-7-phenoxyisoquinoline-3-carboxamido)butanoic acid]
IC50 (PHD1 (EGLN2)): 5.19 µM
PHD2/PHD1 (PHD1 (EGLN2)): 9
IC50 (PHD2 (EGLN1)): 45.4 µM

SMILES: CCNC(=O)N[C@H](CCNC(=O)c1nc(C#N)c2cc(Oc3ccccc3)ccc2c1O)C(=O)O [Compound 52, (R)-4-(1-Cyano-4-hydroxy-7-phenoxyisoquinoline-3-carboxamido)-2-(3-ethylureido)butanoic acid]
IC50 (PHD1 (EGLN2)): 1.33 µM
PHD2/PHD1 (PHD1 (EGLN2)): 18.6
IC50 (PHD2 (EGLN1)): 24.7 µM

SMILES: CN(C)C(=O)N[C@H](CCNC(=O)c1nc(C#N)c2cc(Oc3ccccc3)ccc2c1O)C(=O)O [Compound 54, (R)-4-(1-Cyano-4-hydroxy-7-phenoxyisoquinoline-3-carboxamido)-2-(3,3-dimethylureido)butanoic acid]
IC50 (PHD1 (EGLN2)): 1.81 µM
PHD2/PHD1 (PHD1 (EGLN2)): 6.1
IC50 (PHD2 (EGLN1)): 11 µM

SMILES: N#Cc1nc(C(=O)NCC[C@@H](NC(N)=O)C(=O)O)c(O)c2ccc(Oc3ccccc3)cc12 [Compound 55, (R)-4-(1-Cyano-4-hydroxy-7-phenoxyisoquinoline-3-carboxamido)-2-ureidobutanoic acid]
IC50 (PHD1 (EGLN2)): 1.1 µM
PHD2/PHD1 (PHD1 (EGLN2)): 8
IC50 (PHD2 (EGLN1)): 9.1 µM

Stronger by IC50 (PHD1 (EGLN2)), values ahead:

IC50 (PHD1 (EGLN2)): 0.94 µM
PHD2/PHD1 (PHD1 (EGLN2)): 22
IC50 (PHD2 (EGLN1)): 20.8 µM
SMILES: CC(C)(CCC(=O)O)NC(=O)c1nc(C#N)c2cc(Oc3ccccc3)ccc2c1O [Compound 46, 4-(1-Cyano-4-hydroxy-7-phenoxyisoquinoline-3-carboxamido)-4-methylpentanoic acid]

IC50 (PHD1 (EGLN2)): 0.55 µM
PHD2/PHD1 (PHD1 (EGLN2)): 17
IC50 (PHD2 (EGLN1)): 9.56 µM
SMILES: CC(C)(CNC(=O)c1nc(C#N)c2cc(Oc3ccccc3F)ccc2c1O)C(=O)O [Compound 41, 3{-[1-Cyano-7-(2-fluoro-phenoxy)-4-hydroxy-isoquinoline-3-carbonyl]-amino}-2,2-dimethyl-propionic acid]

IC50 (PHD1 (EGLN2)): 0.54 µM
PHD2/PHD1 (PHD1 (EGLN2)): 9
IC50 (PHD2 (EGLN1)): 5.1 µM
SMILES: CCC(CNC(=O)c1nc(C#N)c2cc(Oc3ccccc3)ccc2c1O)C(=O)O (stereo not drawn) [Compound 57, 2-((1-Cyano-4-hydroxy-7-phenoxyisoquinoline-3-carboxamido)methyl)butanoic acid]

IC50 (PHD1 (EGLN2)): 0.53 µM
PHD2/PHD1 (PHD1 (EGLN2)): 8
IC50 (PHD2 (EGLN1)): 4.2 µM
SMILES: CC(C)(CNC(=O)c1nc(C#N)c2cc(Oc3cc(F)ccc3Cl)ccc2c1O)C(=O)O [Compound 31, 3-{[7-(2-Chloro-5-fluoro-phenoxy)-1-cyano-4-hydroxy-isoquinoline-3-carbonyl]-amino}-2,2-dimethyl-propionic acid]

IC50 (PHD1 (EGLN2)): 0.36 µM
PHD2/PHD1 (PHD1 (EGLN2)): 11
IC50 (PHD2 (EGLN1)): 3.95 µM
SMILES: CC(C)(CNC(=O)c1nc(C#N)c2cc(Oc3cccc(F)c3)ccc2c1O)C(=O)O [Compound 42, 3-(1-Cyano-7-(3-fluorophenoxy)-4-hydroxyisoquinoline-3-carboxamido)-2,2-dimethylpropanoic acid]

IC50 (PHD1 (EGLN2)): 0.3 µM
PHD2/PHD1 (PHD1 (EGLN2)): 13
IC50 (PHD2 (EGLN1)): 4.01 µM
SMILES: CC(C)(CNC(=O)c1nc(C#N)c2cc(Oc3ccc(Cl)cc3)ccc2c1O)C(=O)O [Compound 40, 3-{[7-(4-Chloro-phenoxy)-1-cyano-4-hydroxy-isoquinoline-3-carbonyl]-amino}-2,2-dimethyl-propionic acid]

IC50 (PHD1 (EGLN2)): 0.28 µM
PHD2/PHD1 (PHD1 (EGLN2)): 14
IC50 (PHD2 (EGLN1)): 3.9 µM
SMILES: Cc1ccc(Oc2ccc3c(O)c(C(=O)NCC(C)(C)C(=O)O)nc(C#N)c3c2)cc1 [Compound 44, 3-[(1-Cyano-4-hydroxy-7-p-tolyloxy-isoquinoline-3-carbonyl)-amino]-2,2-dimethyl-propionic acid]

IC50 (PHD1 (EGLN2)): 0.28 µM
PHD2/PHD1 (PHD1 (EGLN2)): 7.5
IC50 (PHD2 (EGLN1)): 2.1 µM
SMILES: CC(=O)N[C@H](CCNC(=O)c1nc(C#N)c2cc(Oc3ccccc3)ccc2c1O)C(=O)O [Compound 51, (R)-2-Acetylamino-4-[(1-cyano-4-hydroxy-7-phenoxy-isoquinoline-3-carbonyl)-amino]-butyric acid]

IC50 (PHD1 (EGLN2)): 0.26 µM
PHD2/PHD1 (PHD1 (EGLN2)): 7
IC50 (PHD2 (EGLN1)): 1.8 µM
SMILES: N#Cc1nc(C(=O)NCCC(=O)C(=O)O)c(O)c2ccc(Oc3ccccc3)cc12 [Compound 56, 4-(1-Cyano-4-hydroxy-7-phenoxyisoquinoline-3-carboxamido)-2-oxobutanoic acid]

IC50 (PHD1 (EGLN2)): 0.24 µM
PHD2/PHD1 (PHD1 (EGLN2)): 20
IC50 (PHD2 (EGLN1)): 4.79 µM
SMILES: CC(C)(CNC(=O)c1nc(C#N)c2cc(Oc3ccccc3Cl)ccc2c1O)C(=O)O [Compound 38, 3-(7-(2-Chlorophenoxy)-1-cyano-4-hydroxyisoquinoline-3-carboxamido)-2,2-dimethylpropanoic acid]

IC50 (PHD1 (EGLN2)): 0.24 µM
PHD2/PHD1 (PHD1 (EGLN2)): 5.8
IC50 (PHD2 (EGLN1)): 1.4 µM
SMILES: COC(=O)N[C@H](CCNC(=O)c1nc(C#N)c2cc(Oc3ccccc3)ccc2c1O)C(=O)O [Compound 53, (R)-4-(1-Cyano-4-hydroxy-7-phenoxyisoquinoline-3-carboxamido)-2-(methoxycarbonylamino)butanoic acid]

IC50 (PHD1 (EGLN2)): 0.23 µM
PHD2/PHD1 (PHD1 (EGLN2)): 12
IC50 (PHD2 (EGLN1)): 2.83 µM
SMILES: N#Cc1nc(C(=O)NC[C@@H](O)CC(=O)O)c(O)c2ccc(Oc3ccccc3)cc12 [Compound 35, (S)-4-(1-Cyano-4-hydroxy-7-phenoxyisoquinoline-3-carboxamido)-3-hydroxybutanoic acid]

IC50 (PHD1 (EGLN2)): 0.22 µM
PHD2/PHD1 (PHD1 (EGLN2)): 8
IC50 (PHD2 (EGLN1)): 1.73 µM
SMILES: CC(C)(CNC(=O)c1nc(C#N)c2cc(Oc3cccc4ccccc34)ccc2c1O)C(=O)O [Compound 43, 3-(1-Cyano-4-hydroxy-7-(naphthalen-1-yloxy)isoquinoline-3-carboxamido)-2,2-dimethylpropanoic acid]

IC50 (PHD1 (EGLN2)): 0.18 µM
PHD2/PHD1 (PHD1 (EGLN2)): 11
IC50 (PHD2 (EGLN1)): 1.97 µM
SMILES: CC(C)(CNC(=O)c1nc(C#N)c2cc(Oc3cccc(Cl)c3)ccc2c1O)C(=O)O [Compound 39, 3-{[7-(3-Chloro-phenoxy)-1-cyano-4-hydroxy-isoquinoline-3-carbonyl]-amino}-2,2-dimethyl-propionic acid]
